In patent US20250346635A1, “VASCULAR ENDOTHELIAL GROWTH FACTOR RECEPTOR-1 (VEGFR-1) INHIBITORS FOR PROMOTING MYELINATION AND NEUROPROTECTION” (ICM (INSTITUT DU CERVEAU ET DE LA MOELLE ÉPINIÉRE), priority 2022, published 2025):

How the values were obtained:
Purkinje cells = assay: Neuroprotection of Purkinje cells in organotypic cerebellar slices (CaBP immunostaining); format: cell-based; settings: 10 days in vitro, slices from P0 mouse
Experimental: (§1) Organotypic cerebellar slices were generated from brains of postnatal day 0 (P0) and P7 mouse pups. Briefly, cerebella were dissected and cut into 350 μm slices. Cerebellar slices from the vermis were collected and then cultured on Millicell cell culture inserts (Millipore) in 6-wellplates in a medium composed of 50% Basal Medium Eagle, 25% Hank solution (HBSS), 25% inactivated horse serum, 5 mg/ml high-glucose, 1 mM L-glutamine, 0.2% penicillin-streptomycin. Slices were incubated at 37° C. (5% CO2) for 10 days (slices from P0) or 3 days (slices from P7). The culture medium was replaced every 2-3 days. For immunohistochemistry, slices were fixed in 4% paraformaldehyde and immunostained for CaBP and MBP. Briefly, slices were incubated in 4% BSA/0.2% triton for 1 hour and next incubated overnight with the following primary antibodies: rabbit anti-CaBP (dilution: 1/10000) and rat anti-MBP (dilution: 1/250). After several washes in PBS 0.1M, slices were then incubated with the secondary antibodies (anti-rabbit alexaFluor555, anti-mouse alexaFluor488) and Dapi for 2 hours and finally washed in PBS 0.1M and mounted in Fluoromount medium. Flurorescence imaging were performed with a confocal microscopy NIKON A1R-HD25.
The neuroprotective effects of the drugs were assessed by evaluating the density of Purkinje cells in basal medium alone and in basal medium supplemented with VEGFRs inhibitors. Organotypic cerebellar slices obtained from P0 mouse (as described above) were cultured for 10 days in vitro in basal medium alone, or in the basal medium supplemented either with pan-VEGFRs inhibitors, VEGFR-2/3 specific inhibitor (Telatinib) or with VEGFR-1 selective and specific inhibitors (SU14813 and ZM306416), respectively. All compounds were used at 500 nM, except ZM306416 that was used at 30 μM. After treatments, slices were immunostained for CaBP, as described above.

rat primary OPC cultures [1] = assay: OPC differentiation in rat primary OPC cultures (MBP+Sox10+ cells); format: cell-based; settings: 500 nM, 5 days in vitro
Experimental: Rat primary OPC cultures were obtained from neonatal pups (P0-P1). Brains were dissected, cerebellar cortices and meninges were removed. Brain tissues were next mechanically and enzymatically dissociated. After filtration and centrifugation, mixed cells of astrocytes, microglia and OPCs was cultured in DMEM medium on polyornithine-coated flasks. After 13-14 days of culture, microglial cells were removed by shaking during 2 h. OPCs were next collected after 18 h of shaking, followed by differential adhesion. OPCs purification was validated by immunostaining of Olig2 and Sox10. To induce differentiation, cells were kept in proliferation medium (DMEM-F12, 1% PS, FGF, PDGF, 1% laminin, Biotin, 2% B27, N1 mix) for 24 h and then switched to a differentiation medium with the same composition but deprived of FGF and PDGF. Cells were incubated at 37° C. (5% CO2) for 5 days and the medium was partially replaced every 2 days. Cells were then fixed in 2% paraformaldehyde and immunostained with Sox10 and MBP. Cells were incubated for 2 hours with primary antibodies Sox10 (Goat 1/100) and MBP (Rabbit 1/500) diluted in 4% BSA in PBS 0.1M/0.1% Triton. After washes, cells were then incubated with the secondary antibody (anti-Goat Alexa647, anti-Rabbit Alexa488 and Dapi) for 1 hour and finally washed in PBS 0.1M and mounted in Fluoromount medium. […]
Oligodendrocytes differentiation was assessed by analyzing the fold increase of MBP^+Sox10^+ cells in treated conditions relative to the basal condition. The percentage of MBP^+Sox10^+ cells were quantified after treatments with pan-VEGFRs and selective VEGFR-1 antagonists and compared with the basal medium. […] Myelination was assessed using organotypic cerebellar slices generated from P7 mice cerebellum and the effect of VEGFRs sub-types antagonists on myelination was analyzed after immunostaining for Sox10 for oligodendroglia, MBP for myelin (white) and calbindin (gray). […] The myelination index for each condition was quantified as the percentage of MBP+CaBP+ axons over the total CaBP+ axonal surface area and normalized relatively to basal condition.

[2] = test system: organotypic cerebellar slices; assay: Myelination in organotypic cerebellar slices from P7 mice (MBP/CaBP); format: cell-based; settings: 3 days ex vivo, slices from P7 mouse
Experimental: as §1
Oligodendrocytes differentiation was assessed by analyzing the fold increase of MBP^+Sox10^+ cells in treated conditions relative to the basal condition. The percentage of MBP^+Sox10^+ cells were quantified after treatments with pan-VEGFRs and selective VEGFR-1 antagonists and compared with the basal medium. Results are shown as differentiation fold increase relative to the basal condition. Myelination was assessed using organotypic cerebellar slices generated from P7 mice cerebellum and the effect of VEGFRs sub-types antagonists on myelination was analyzed after immunostaining for Sox10 for oligodendroglia, MBP for myelin (white) and calbindin (gray). Slices were cultured in basal medium (control condition), or in the basal medium supplemented either with 9cis-RA (used as a positive control of myelination) or with VEGFR-1 selective and specific inhibitor (SU14813 and ZM306416), respectively. All compounds were used at 500 nM, except ZM306416 that has been used at 30 μM. The myelination index for each condition was quantified as the percentage of MBP+CaBP+ axons over the total CaBP+ axonal surface area and normalized relatively to basal condition.

rat primary OPC cultures [3] = assay: OPC differentiation (Olig2+MBP+ cells/Olig2+ cells) after VEGFR-1 shRNA or blocking peptide; format: cell-based; settings: blocking peptide vs control (basal medium), 5 days in differentiation medium
Experimental: Rat primary OPC cultures were obtained from neonatal pups (P0-P1). Brains were dissected, cerebellar cortices and meninges were removed. Brain tissues were next mechanically and enzymatically dissociated. After filtration and centrifugation, mixed cells of astrocytes, microglia and OPCs was cultured in DMEM medium on polyornithine-coated flasks. After 13-14 days of culture, microglial cells were removed by shaking during 2 h. OPCs were next collected after 18 h of shaking, followed by differential adhesion. OPCs purification was validated by immunostaining of Olig2 and Sox10. To induce differentiation, cells were kept in proliferation medium (DMEM-F12, 1% PS, FGF, PDGF, 1% laminin, Biotin, 2% B27, N1 mix) for 24 h and then switched to a differentiation medium with the same composition but deprived of FGF and PDGF. Cells were incubated at 37° C. […]
For RT-qPCR, transduction at MOI 8 and MOI 2 were used. […] For immunocytochemistry, transfection with MOI 4 was used and labelling with Olig2 and MBP to quantify Olig2+MBP+ differentiated oligodendrocytes.
Our data confirmed efficient lentivirus transduction with multiplicity of infection 4 (MOI 4) and knock-down of VEGFR-1 (FIG. 5A). […] To do so, we quantified Olig2+MBP+ differentiated oligodendrocytes over the total Olig2+ oligodendroglial cells (ratio of Olig2+MBP+ cells/Olig2+ cells) for each condition.

[4] = test system: organotypic cerebellar slices; assay: Myelination in organotypic cerebellar slices treated with VEGFR-1 blocking peptide; format: cell-based, mouse; settings: 10 μM, from 5 to 10 days in vitro
Experimental: as §1
Mouse cerebellar slices were prepared as previously described. […]

Compound | neuroprotection / number of Purkinje cells relative to basal condition (Purkinje cells; 500 nM) | number of SOX10+MBP+ differentiated oligodendrocytes relative to basal condition (rat primary OPC cultures [1]) | MBP+ mature oligodendrocytes in organotypic cerebellar slices ([2]; 500 nM) | other results
Cc1[nH]c(C=C2C(=O)Nc3ccc(F)cc32)c(C)c1C(=O)NC[C@H](O)CN1CCOCC1 [SU14813] | enhance neuroprotection of Purkinje cells | significant increase | numerous MBP^+ mature oligodendrocytes | myelination index (density of myelinated axons) vs basal, 9 cis-RA, VEGFR-2/3 inhibitor and pan-VEGFR inhibitors ([2]; 500 nM): density of myelinated axons was higher
GNQWFI [VEGFR-1-blocking peptide] |  |  |  | fold increase in the number of Olig2+MBP+ cells (rat primary OPC cultures [3]): 1.18±0.19 fold; ex-vivo myelination (MBP+CaBP+ myelinated axons) [4]: enhances ex-vivo myelination
CNC(=O)c1cccc2cc(Oc3ccnc4cc(OCC5(N)CC5)c(OC)cc34)ccc12 [Lucitanib] | higher number of Purkinje cells with respect to the basal condition | significant increase | numerous MBP^+ mature oligodendrocytes | 
COc1cc2ncnc(Nc3ccc(Cl)cc3F)c2cc1OC [ZM306416] |  |  |  | neuroprotection / number of Purkinje cells relative to basal condition (Purkinje cells; 30 μM): enhance neuroprotection of Purkinje cells; MBP+ mature oligodendrocytes in organotypic cerebellar slices ([2]; 30 μM): numerous MBP^+ mature oligodendrocytes; myelination index (density of myelinated axons) vs basal, 9 cis-RA, VEGFR-2/3 inhibitor and pan-VEGFR inhibitors ([2]; 30 μM): density of myelinated axons was higher
CNC(=O)c1cc(COc2nnc(Nc3ccc(Cl)cc3)c3ccoc23)ccn1 [Telatinib] | but not of VEGFR-2/3 (Telatinib), enhance neuroprotection | significant increase |  | 
